Experimental data: patent US12410124B2 (priority 2019, dated 2025)

Assays:
Type in all cases: in vivo
substantia nigra CD11b = assay: Number of substantia nigra microglial cells with CD11b positive expression in MPTP Parkinson's disease model mouse (immunohistochemistry); conditions: for Positive cell number (microglial cells with CD11b positive expression): substantia nigra, MPTP Parkinson's disease model mouse, immunohistochemistry
Description: (§1) Neurotoxins can be used to establish PD animal models. Currently, 1-methyl-4-phenyl-1,2,3,6-tetrahydropyridine (MPTP) is the sole synthetic toxin which is recognized to induce PD symptoms in human and non-human primates and in mice. Using MPTP subacute modeling method, C57BL/6J male mice were intraperitoneally injected with MPTP 30 mg/kg, once a day for 5 consecutive days. The experiment animals were divided into blank control group, MPTP model group, and compound treatment group. For the […] compound treatment group, the compound was administrated by gavage for 21 consecutive days after the completion of modeling; for the MPTP model group, the normal saline was administrated by gavage for 21 consecutive days after the completion of modeling; and for the blank control group, the normal saline was first intraperitoneally injected for 5 days, and then administrated by gavage for 21 days.
(§2) Neuron-glial cell network homeostasis disorder is an important factor for the selective and progressive death of substantia nigra dopaminergic neurons in PD. In the neurotoxic effect of MPTP, the excessive activations of microglial cells and astrocytes produce a variety of inflammatory cytokines and reactive oxygen species (ROS). These inflammatory factors and ROS amplify their respective toxicities and mediate malignant feedback loop, causing a cascade inflammation response and aggravating the pathological process of PD. CD11b and GFAP are the marker proteins for activations of microglial cells and astrocytes, respectively. Therefore, the effect of the target compounds on the activations of the microglial cells and astrocytes in the substantia nigra, hippocampus, and midbrain areas of MPTP-induced PD mice can be investigated, to explore the mechanism of the anti-PD effect of the target compounds by inhibiting the neuroinflammation.
(§3) Half of experiment mice in each group were taken to separate the midbrain after perfusion and fixation. The tissue was trimmed, and the substantia nigra area was taken to prepare paraffin sections. The CD11b immunohistochemical staining was performed for the statistics of the change in the number of microglial cells with CD11b positive expression. The experiment included blank control group, MPTP model group, positive control group (caffeic acid phenethyl ester, CAPE), prototype control group (styryl sulfone compounds 3B, 3C, 3D, and 3G, whose structures are shown as above), and target compound group.

hippocampus GFAP = assay: Number of hippocampus astrocytes with GFAP positive expression in MPTP Parkinson's disease model mouse (immunohistochemistry); conditions: for Positive cell number (astrocytes with GFAP positive expression): hippocampus, MPTP Parkinson's disease model mouse, immunohistochemistry
Description: as §1, §2
as §3, with “hippocampus” for “substantia nigra”, “GFAP” for “CD11b”, “astrocytes” for “microglial cells”

hippocampus CD11b = assay: Number of hippocampus microglial cells with CD11b positive expression in MPTP Parkinson's disease model mouse (immunohistochemistry); conditions: for Positive cell number (microglial cells with CD11b positive expression): hippocampus, MPTP Parkinson's disease model mouse, immunohistochemistry
Description: as §1, §2
as §3, with “hippocampus” for “substantia nigra”

midbrain p-α-s = assay: Midbrain p-α-s protein expression in MPTP Parkinson's disease model mouse (western-blotting); conditions: midbrain total protein, GAPDH internal reference, gavage 21 consecutive days after MPTP modeling
Description: as §1
Alpha-synuclein is an “unfolded protein” in its natural state. It exists in a monomeric form, and participates in the physiological functions such as the release of neurotransmitters, the establishment of synaptic junctions, and the regulation of synaptic plasticity. Under pathological conditions, more than 90% of alpha-synuclein is phosphorylated at serine of position 129 and converted into phosphorylated alpha-synuclein (p-α-s), thereby forming Lewy bodies. The formation of Lewy bodies is one of the main pathological manifestations and pathological mechanisms for Parkinson's disease, and plays an important role in the formation and development of PD. The detection of the p-α-s expression in the midbrain and substantia nigra of PD model mice can evaluate the neuroprotective activity of the compound.
(§4) Half of experiment mice in each group were taken to extract the total midbrain protein, and the change in the midbrain P-α-s protein expression was determined by western-blotting using GAPDH as the internal reference. The experiment included blank control group, MPTP model group, positive control group (caffeic acid phenethyl ester, CAPE), prototype control group (styryl sulfone compounds 3B, 3C, 3D, and 3G, whose structures are shown as above), and target compound group.

substantia nigra pp38 = assay: Substantia nigra pp38 protein expression in MPTP Parkinson's disease model mouse (immunofluorescence); conditions: percentage of mean intensity of blank control group, gavage 21 days after MPTP modeling
Description: as §1
The p38 mitogen-activated protein kinase (p38 MAPK) is expressed in both neurons and glial cells, and is the intersection point of neuron-glial cell network information regulations. The activation of p38 signaling pathway is an important initiator of neuronal degeneration, which continuously induces the apoptosis of dopaminergic neurons in multiple ways. It has become a research hotspot for the treatment of PD. Studies have shown that the protective mechanism of CAPE against the death of primary cultured cerebellar granule neurons induced by glutamate lies in inhibiting the activation of p38 phosphorylation and in turn inhibiting the activation of the caspase 3 apoptotic pathway to prevent neuronal apoptosis. Therefore, the MPTP-induced PD mouse model can be used to investigate the inhibitory effect of the target compounds on the activation of p38 phosphorylation on the overall animal level.
as §3, with “nigra-striatum” for “nigra”, “double immunofluorescence” for “CD11b immunohistochemical”, “staining for TH and phosphorylated p38” for “staining”, “performed to observe the coexpression of TH and phosphorylated p38,” for “performed”, “phosphorylated p38 protein” for “number of microglial cells with CD11b positive”

midbrain TH = assay: Midbrain TH expression in MPTP Parkinson's disease model mouse (western-blotting); conditions: midbrain total protein, GAPDH internal reference, gavage 21 days after MPTP modeling
Description: as §1
The main cause of PD lies in the pathological changes in the substantia nigra-striatum projection system of the brain and the progressive degeneration and loss of dopaminergic neurons. Tyrosine hydroxylase (TH) is the first enzyme in the biosynthesis of catecholamine neurotransmitters, as well as the first rate-limiting enzyme in the dopamine synthesis. It plays an important role in the synthesis and metabolism of the neurotransmitter DA. The TH in PD animal models and patients has a wide range of abnormal changes, from the gene expression to the enzyme protein content and enzyme activity. The detection of the TH expression in the midbrain and substantia nigra of PD model mice can be used to evaluate the neuroprotective activity of the compound.
as §4, with “TH” for “P-α-s protein expression”

CC(C)(C)c1ccc(CS(=O)(=O)/C=C/c2ccc(O)c(O)c2)cc1 [Compound 3G, (E)-4-{2-[(4-t-butylphenyl)mesyl]ethenyl}benzene-1,2-diol, reference compound]
Positive cell number (microglial cells with CD11b positive expression) (substantia nigra CD11b): 52 ± 5 | Positive cell number (astrocytes with GFAP positive expression) (hippocampus GFAP): 130 ± 6 | Positive cell number (microglial cells with CD11b positive expression) (hippocampus CD11b): 18 ± 3 | Expression (p-α-s/GAPDH) (midbrain p-α-s): 0.61 ± 0.08 | Expression (Immunofluorescence intensity %) (substantia nigra pp38): 118.25 ± 10.60% | Expression (TH/GAPDH) (midbrain TH): 0.45 ± 0.05

CCN(CC)C(=O)Oc1ccc(/C=C/S(=O)(=O)CCCc2ccccc2)cc1OC(=O)N(CC)CC [Compound C1-1, (E)-4-[2-(3-phenylpropylsulfonyl)ethenyl]-1,2-phenylenebis(diethylcarbamate)]
number of substantia nigra microglial cells with CD11b positive expression compared with the styryl sulfone prototype compounds (substantia nigra CD11b): significantly lower | Positive cell number (microglial cells with CD11b positive expression) (substantia nigra CD11b): 27 ± 4 | number of hippocampus astrocytes with GFAP positive expression compared with the styryl sulfone prototype compounds (hippocampus GFAP): significantly lower | Positive cell number (astrocytes with GFAP positive expression) (hippocampus GFAP): 78 ± 3 | number of hippocampus microglial cells with CD11b positive expression compared with the styryl sulfone prototype compounds (hippocampus CD11b): significantly lower | Positive cell number (microglial cells with CD11b positive expression) (hippocampus CD11b): 7 ± 2 | Expression (p-α-s/GAPDH) (midbrain p-α-s): 0.63 ± 0.06 | Expression (Immunofluorescence intensity %) (substantia nigra pp38): 108.71 ± 12.51% | Expression (TH/GAPDH) (midbrain TH): 1.20 ± 0.06

O=C(/C=C/c1ccc(O)c(O)c1)OCCc1ccccc1 [Positive control group, caffeic acid phenethyl ester, reference compound]
Positive cell number (microglial cells with CD11b positive expression) (substantia nigra CD11b): 49 ± 7 | Positive cell number (astrocytes with GFAP positive expression) (hippocampus GFAP): 86 ± 2 | Positive cell number (microglial cells with CD11b positive expression) (hippocampus CD11b): 24 ± 2 | Expression (p-α-s/GAPDH) (midbrain p-α-s): 0.54 ± 0.12 | Expression (Immunofluorescence intensity %) (substantia nigra pp38): 139.72 ± 25.32% | Expression (TH/GAPDH) (midbrain TH): 0.85 ± 0.04

COc1cc(/C=C/S(=O)(=O)Cc2cc(OC)c(OC)c(OC)c2)ccc1OC(=O)N(c1ccccc1)c1ccccc1 [Compound K3-3, (E)-2-methoxy-4-{2-[(3,4,5-trimethoxyphenyl)mesyl]ethenyl}-phenyl-N,N-diphenylcarbamate]
Positive cell number (microglial cells with CD11b positive expression) (substantia nigra CD11b): 39 ± 3 | Positive cell number (astrocytes with GFAP positive expression) (hippocampus GFAP): 69 ± 3 | Positive cell number (microglial cells with CD11b positive expression) (hippocampus CD11b): 18 ± 1 | Expression (p-α-s/GAPDH) (midbrain p-α-s): 0.62 ± 0.11 | Expression (Immunofluorescence intensity %) (substantia nigra pp38): 111.17 ± 9.62% | Expression (TH/GAPDH) (midbrain TH): 1.15 ± 0.05

CCN(CC)C(=O)Oc1ccc(/C=C/S(=O)(=O)Cc2ccc(Cl)cc2)cc1OC(=O)N(CC)CC [Compound D1-1, (E)-4-{2-[(4-chlorophenyl)mesyl]ethenyl}-1,2-phenylenebis(diethylcarbamate)]
number of substantia nigra microglial cells with CD11b positive expression compared with the styryl sulfone prototype compounds (substantia nigra CD11b): significantly lower | Positive cell number (microglial cells with CD11b positive expression) (substantia nigra CD11b): 15 ± 3 | number of hippocampus astrocytes with GFAP positive expression compared with the styryl sulfone prototype compounds (hippocampus GFAP): significantly lower | Positive cell number (astrocytes with GFAP positive expression) (hippocampus GFAP): 58 ± 5 | number of hippocampus microglial cells with CD11b positive expression compared with the styryl sulfone prototype compounds (hippocampus CD11b): significantly lower | Positive cell number (microglial cells with CD11b positive expression) (hippocampus CD11b): 7 ± 1 | Expression (p-α-s/GAPDH) (midbrain p-α-s): 0.42 ± 0.10 | Expression (Immunofluorescence intensity %) (substantia nigra pp38): 57.50 ± 15.33% | Expression (TH/GAPDH) (midbrain TH): 1.27 ± 0.05

Cc1ccc(N2CCN(C(=O)Oc3ccc(/C=C/S(=O)(=O)CCCC(c4ccc(OC(=O)CN(C)C)cc4)N(C)C)cc3OC(=O)N(C)c3ccccc3)CC2)cc1 (stereo not drawn) [Compound P1-1, (E)-4-{2-[4-(dimethylamino)-4-(4-(N,N-dimethylglycyloxy)phenyl)butylsulfonyl]ethenyl}-2-(N-methyl-N-phenylcarbamoyloxy)phenyl-4-(p-methylphenyl)piperazine-1-carboxylate]
Positive cell number (microglial cells with CD11b positive expression) (substantia nigra CD11b): 26 ± 3 | Positive cell number (astrocytes with GFAP positive expression) (hippocampus GFAP): 72 ± 3 | Positive cell number (microglial cells with CD11b positive expression) (hippocampus CD11b): 7 ± 2 | Expression (p-α-s/GAPDH) (midbrain p-α-s): 0.48 ± 0.12 | Expression (Immunofluorescence intensity %) (substantia nigra pp38): 99.55 ± 8.46% | Expression (TH/GAPDH) (midbrain TH): 0.88 ± 0.04

CCN(CC)C(=O)Oc1ccc(/C=C/S(=O)(=O)Cc2ccc(C(F)(F)F)cc2)cc1OC(=O)N(CC)CC [Compound B1-1, (E)-4-{2-[(4-trifluoromethylphenyl)mesyl]ethenyl}-1,2-phenylenebis(diethylcarbamate)]
number of substantia nigra microglial cells with CD11b positive expression compared with the styryl sulfone prototype compounds (substantia nigra CD11b): significantly lower | Positive cell number (microglial cells with CD11b positive expression) (substantia nigra CD11b): 32 ± 4 | number of hippocampus astrocytes with GFAP positive expression compared with the styryl sulfone prototype compounds (hippocampus GFAP): significantly lower | Positive cell number (astrocytes with GFAP positive expression) (hippocampus GFAP): 64 ± 4 | number of hippocampus microglial cells with CD11b positive expression compared with the styryl sulfone prototype compounds (hippocampus CD11b): significantly lower | Positive cell number (microglial cells with CD11b positive expression) (hippocampus CD11b): 9 ± 2 | Expression (p-α-s/GAPDH) (midbrain p-α-s): 0.23 ± 0.12 | Expression (Immunofluorescence intensity %) (substantia nigra pp38): 76.35 ± 21.90% | Expression (TH/GAPDH) (midbrain TH): 0.92 ± 0.02

COc1ccc(CC(=O)Oc2ccc(/C(C)=C/S(=O)(=O)/C=C/c3ccc(OC(=O)N(C)C)c(O[Si](C)(C)CCl)c3)cc2)cc1 [Compound P1-7, 4-{(E)-1-[(E)-3-(chloromethyldimethylsiloxy)-4-(N,N-dimethylcarbamoyloxy)styrylsulfonyl]prop-1-en-2-yl}phenyl-2-(4-methoxyphenyl) acetate]
Positive cell number (microglial cells with CD11b positive expression) (substantia nigra CD11b): 15 ± 2 | Positive cell number (astrocytes with GFAP positive expression) (hippocampus GFAP): 49 ± 4 | Positive cell number (microglial cells with CD11b positive expression) (hippocampus CD11b): 8 ± 2 | Expression (p-α-s/GAPDH) (midbrain p-α-s): 0.27 ± 0.08 | Expression (Immunofluorescence intensity %) (substantia nigra pp38): 77.29 ± 13.06% | Expression (TH/GAPDH) (midbrain TH): 0.88 ± 0.06
